Data reported in patent US7816347B2, “Pharmaceutical compositions comprising NEP-inhibitors, inhibitors of the endogenous endothelin producing system and HMG CoA reductase inhibitors” (Solvay Pharmaceuticals GmbH, priority 2004, dated 2010).
Where two headings read alike, the source gives them in different places. Marks after values point to notes of the source that are not given here.

What was measured:
[1] = test system: human subjects with congestive heart failure; experiment: Single dose study of oral daglutril during 12-hour right heart catheterization; subgroup analysis by concomitant HMG CoA reductase inhibitor; type: in vivo; settings: CHF patients, single oral dose of daglutril (200, 400 or 800 mg groups), with or without concomitant HMG CoA reductase inhibitor; value (SE)
Method: A randomized, placebo-controlled, parallel group, multi-center, single dose study of oral daglutril (vide supra) during 12-hour right heart catheterization in human subjects with congestive heart failure (=CHF) was performed. Each subject received one dose of daglutril or placebo. The study consisted of three visits (or study days when in-subjects were included). Ambulatory subjects were in hospital for two nights and one day. […]
The primary efficacy parameter was the maximum decrease from baseline over 6 hours for SVR and was compared between treatment groups using analysis of covariance, with the baseline value as covariate and center and NYHA classification as factors. […] In addition, the existence of a dose-response relationship for daglutril was evaluated by investigating linear, quadratic and cubic contrasts. The secondary efficacy parameter was the maximum change from baseline over 6 hours for PCWP and was analyzed in the same way as the primary variable. The maximum decrease from baseline over 12 hours, the change from for each individual time point and the adjusted area under the curve (=AUC) over 6 and 12 hours were analyzed for SVR and PCWP, using similar statistical methodology as for the main parameter of interest. […]

[2] = test system: spontaneously hypertensive rat; experiment: Telemetric blood pressure and heart rate in SHR; daglutril, simvastatin or simvastatin+daglutril via drinking water; type: in vivo; settings: for DBP, change from baseline / HR, change from baseline / SBP, change from baseline: 24 h mean, day 23 minus baseline (day 3), intended 40 mg/kg/day simvastatin, 100 mg/kg/day daglutril, n = 4-5
Method: In a first experiment, after 3 days of monitoring under baseline (untreated) conditions, animals received daglutril via the drinking water. The intended daily dose was 100 mg/kg/day of daglutril. The concentration in drinking water was adjusted once per week, resulting in an average drug intake of 98 mg/kg/day.
Concentrations of simvastatin and daglutril in the drinking water were adjusted once per week, in order to ensure the intended daily intake of 40 and 100 mg/kg, respectively. The average daily water intake amounted to 33 and 36 ml/kg in the simvastatin and simvastatin+daglutril group, respectively, resulting in the uptake of 36 mg/kg/day of simvastatin in the simvastatin group, and 37 mg/kg/day of simvastatin and 93 mg/kg/day of daglutril in the combination group.
These 24 h means were exported to Excel®, and group mean values of systolic (SBP), diastolic blood pressure (DBP), heart rate (HR), and locomotor activity (ACT) were calculated daily. For the statistical analysis, the effects of simvastatin and simvastatin+daglutril were calculated by subtracting the baseline value (pre) measured on the last day prior to compound application (day 3) from that value measured on day 23 (i.e. on the penultimate day of the treatment period) for each animal. The statistical comparison was done by using univariate ANOVA at an error level of P<0.05.

[3] = test system: spontaneously hypertensive rat; settings: in food
Source text: Male spontaneously hypertensive rats (=SHR; insulin resistant strain from Charles River; aged 6 months) were equipped with telemetry transmitters for continuous monitoring of blood pressure and heart rate (TA11PA-C40, DSI, USA). Telemetry transmitters for continuous monitoring of blood pressure, heart rate and locomotor activity (TA11PA-C40, Data Sciences, USA) were implanted intraabdominally under inhalative halothane anesthesia. A midline abdominal incision was made, and the abdominal aorta was visualized by removal of retroperitoneal fat and connective tissue. A ligature was placed caudal of the renal arteries, the aorta was punctured with a 22G needle, and the catheter was advanced into the aorta. The entry point was sealed with tissue adhesive (Vetbond™, 3M, USA), the ligature was removed, and the abdominal incision was closed. Measurements of aortic pressure were taken every 5 minutes (=min) for 4 seconds (=s) each at a sampling rate of 500 Hz, and were corrected for the corresponding ambient pressure (ambient pressure monitor, C11PR, Data Sciences, USA).
In a further study performed with a new batch of SHR equipped with telemetry-transmitters as described above, the animals were divided into two groups receiving the HMG CoA reductase inhibitor atorvastatin or a combination of atorvastatin+daglutril. Compounds were mixed into the food, and the daily drug intake was measured by weighing the unconsumed food four times weekly. Intended daily doses were 40 mg/kg/day of atorvastatin and in addition, in the combination group, 100 mg/kg/day of daglutril.
Concentrations of atorvastatin and daglutril in the food were adjusted once per week.
For the statistical analysis, the effects of atorvastatin and atorvastatin+daglutril were calculated by subtracting the baseline value (pre) measured on the last day prior to the start of treatment (day 3) from that measured on day 25 (i.e. on the penultimate day of the treatment period) for each animal. The statistical comparison was done by using a two-sided unpaired Student's t-test.

[4] = 24 h mean, day 25 minus baseline (day 3), intended 40 mg/kg/day atorvastatin, 100 mg/kg/day daglutril, n = 6

CCOC(=O)C(CCc1ccccc1)CC1(C(=O)NC2CCc3ccccc3N(CC(=O)O)C2=O)CCCC1 (stereo not drawn) [daglutril, 2-[1-(1-carboxymethyl-2-oxo-2,3,4,5-tetrahydro-1H-benzo[b]azepin-3-ylcarbamoyl)-cyclopentylmethyl]-4-phenyl-butyric acid ethyl ester]
Placebo corrected mean change of MPAP (average 0.5-6 hrs) [1]: −2.26 (1.05) mm Hg | DBP, change from baseline [2]: 2.0* mmHg | HR, change from baseline [2]: -6.0 min⁻¹ | SBP, change from baseline [2]: −0.3* mmHg | Effect on blood pressure (in words) ([2]; SHR): no effect on blood pressure

CC(C)c1c(C(=O)Nc2ccccc2)c(-c2ccccc2)c(-c2ccc(F)cc2)n1CC[C@@H](O)C[C@@H](O)CC(=O)O [Atorvastatin, atorvastatin]
DBP, change from baseline [3, 4]: 3.2 mmHg | HR, change from baseline [3, 4]: -25.3 min⁻¹ | SBP, change from baseline [3, 4]: 3.5 mmHg | Effect on blood pressure (both SBP and DBP) (in words) ([3]; SHR): increase in blood pressure

CCC(C)(C)C(=O)O[C@H]1C[C@@H](C)C=C2C=C[C@H](C)[C@H](CC[C@@H]3C[C@@H](O)CC(=O)O3)[C@H]21 [Simvastatin, simvastatin]
DBP, change from baseline [2]: 4.7 mmHg | HR, change from baseline [2]: -4.2 min⁻¹ | SBP, change from baseline [2]: 4.2 mmHg
